In PubChem BioAssay AID270 (DTP/NCI, 2004):
Values joined by “and” are separate entries in the source; they are usually repeats but may differ in a detail not shown here. Equal values may be shown once. Records with an inconclusive call do not appear.

Tested on: BDF1 mice, s.c. Lewis lung carcinoma, T/C %
Assay: NCI In Vivo Anticancer Drug Screen. Data for tumor model Lewis Lung Carcinoma (subcutaneous) in B6D2F1 (BDF1) mice
Outline: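 The value reflects a ratio in which the treated cohort's survival time or tumour size is compared against mice receiving only vehicle.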

## CC(=O)NNC(=O)c1ccccn1
endpoint: median survival time, dose: 25.0 mg/kg/injection, schedule: Q01DX009 (ip), vehicle: Klucel (hydroxypropylcellulose) (HPC), higher = longer survival
  T/C: 112 % of control
endpoint: median survival time, dose: 100.0 mg/kg/injection, schedule: Q01DX009 (ip), vehicle: Klucel (hydroxypropylcellulose) (HPC), higher = longer survival
  T/C: 102 % of control
endpoint: median survival time, dose: 200.0 mg/kg/injection, schedule: Q01DX009 (ip), vehicle: Klucel (hydroxypropylcellulose) (HPC), higher = longer survival
  T/C: 115 % of control

## O=NN(CCCl)C(=O)N[C@H]1CCCC[C@H]1Cl
endpoint: median survival time, dose: 22.5 mg/kg/injection, schedule: Q01DX001 (ip), vehicle: Klucel (hydroxypropylcellulose) (HPC), higher = longer survival
  T/C: 106 % of control
endpoint: median survival time, dose: 360.0 mg/kg/injection, schedule: Q01DX001 (ip), vehicle: Klucel (hydroxypropylcellulose) (HPC), higher = longer survival
  T/C: 102 % of control
endpoint: median tumor weight (est.), dose: 45.0 mg/kg/injection, schedule: Q01DX001 (ip), vehicle: carboxymethylcellulose (CMC), higher = larger tumour
  T/C: 89 % of control
endpoint: median tumor weight (est.), dose: 90.0 mg/kg/injection, schedule: Q01DX001 (ip), vehicle: carboxymethylcellulose (CMC), higher = larger tumour
  T/C: 6 % of control
endpoint: median tumor weight (est.), dose: 130.0 mg/kg/injection, schedule: Q01DX001 (ip), vehicle: carboxymethylcellulose (CMC), higher = larger tumour
  T/C: 8 % of control

## CC(C)C1C=C2CCC3C(C)(C(=O)O)CCCC3(C)C2CC1 (stereo not drawn)
endpoint: mean tumor weight, dose: 100.0 mg/kg/injection, schedule: Q01DX011 (ip), vehicle: carboxymethylcellulose (CMC), higher = larger tumour
  T/C: 89 % of control
endpoint: mean tumor weight, dose: 200.0 mg/kg/injection, schedule: Q01DX011 (ip), vehicle: carboxymethylcellulose (CMC), higher = larger tumour
  T/C: 38 % of control

## CC1CN(C(=O)CCl)c2ccccc2N1C(=O)CCl (stereo not drawn)
endpoint: mean tumor weight, dose: 1.0 mg/kg/injection, schedule: Q01DX011 (ip), vehicle: carboxymethylcellulose (CMC), higher = larger tumour
  T/C: 121 % of control
endpoint: mean tumor weight, dose: 2.0 mg/kg/injection, schedule: Q01DX011 (ip), vehicle: carboxymethylcellulose (CMC), higher = larger tumour
  T/C: 94 % of control
endpoint: mean tumor weight, dose: 4.0 mg/kg/injection, schedule: Q01DX011 (ip), vehicle: carboxymethylcellulose (CMC), higher = larger tumour
  T/C: 75 % of control
endpoint: mean tumor weight, dose: 8.0 mg/kg/injection, schedule: Q01DX011 (ip), vehicle: carboxymethylcellulose (CMC), higher = larger tumour
  T/C: 124 % of control

## CC1([CH2][Hg][I])COCC([CH2][Hg][I])O1 (stereo not drawn)
endpoint: mean tumor weight, dose: 5.0 mg/kg/injection, schedule: Q01DX011 (ip), vehicle: saline, higher = larger tumour
  T/C: 63 % of control
endpoint: mean tumor weight, dose: 10.0 mg/kg/injection, schedule: Q01DX011 (ip), vehicle: saline, higher = larger tumour
  T/C: 42 % of control
endpoint: mean tumor weight, dose: 20.0 mg/kg/injection, schedule: Q01DX011 (ip), vehicle: saline, higher = larger tumour
  T/C: 52 % of control
endpoint: mean tumor weight, dose: 40.0 mg/kg/injection, schedule: Q01DX011 (ip), vehicle: saline, higher = larger tumour
  T/C: 39 % of control

## CC(=O)OC(C)(C)/C=C/C(=O)[C@](C)(O)[C@H]1[C@H](O)C[C@@]2(C)[C@@H]3CC=C4[C@@H](C=C(O)C(=O)C4(C)C)[C@]3(C)C(=O)C[C@]12C
endpoint: mean tumor weight, dose: 0.4 mg/kg/injection, schedule: Q01DX011 (ip), vehicle: carboxymethylcellulose (CMC), higher = larger tumour
  T/C: 59 % of control
endpoint: mean tumor weight, dose: 0.8 mg/kg/injection, schedule: Q01DX011 (ip), vehicle: carboxymethylcellulose (CMC), higher = larger tumour
  T/C: 78 % of control
endpoint: mean tumor weight, dose: 1.6 mg/kg/injection, schedule: Q01DX011 (ip), vehicle: carboxymethylcellulose (CMC), higher = larger tumour
  T/C: 26 % of control
endpoint: mean tumor weight, dose: 3.2 mg/kg/injection, schedule: Q01DX011 (ip), vehicle: carboxymethylcellulose (CMC), higher = larger tumour
  T/C: 27 % of control
endpoint: mean tumor weight, dose: 3.2 mg/kg/injection, schedule: Q01DX011 (ip), vehicle: saline, higher = larger tumour
  T/C: 58 % of control
endpoint: mean tumor weight, dose: 6.4 mg/kg/injection, schedule: Q01DX011 (ip), vehicle: saline, higher = larger tumour
  T/C: 33 % of control
endpoint: mean tumor weight, dose: 12.8 mg/kg/injection, schedule: Q01DX011 (ip), vehicle: saline, higher = larger tumour
  T/C: 52 % of control

## COc1ccc(-c2cc(=O)c3ccccc3o2)c(OC)c1OC
endpoint: mean tumor weight, dose: 50.0 mg/kg/injection, schedule: Q01DX010 (ip), vehicle: saline, higher = larger tumour
  T/C: 95 % of control
endpoint: mean tumor weight, dose: 100.0 mg/kg/injection, schedule: Q01DX010 (ip), vehicle: saline, higher = larger tumour
  T/C: 101 % of control
endpoint: mean tumor weight, dose: 200.0 mg/kg/injection, schedule: Q01DX010 (ip), vehicle: saline, higher = larger tumour
  T/C: 83 % of control
endpoint: mean tumor weight, dose: 400.0 mg/kg/injection, schedule: Q01DX010 (ip), vehicle: saline, higher = larger tumour
  T/C: 99 % of control

## O=c1c(O)c(-c2ccc(O)c(O)c2)oc2cc(O)cc(O)c12
endpoint: mean tumor weight, dose: 12.5 mg/kg/injection, schedule: Q01DX011 (ip), vehicle: saline, higher = larger tumour
  T/C: 86 % of control
endpoint: mean tumor weight, dose: 25.0 mg/kg/injection, schedule: Q01DX011 (ip), vehicle: saline, higher = larger tumour
  T/C: 71 % of control
endpoint: mean tumor weight, dose: 50.0 mg/kg/injection, schedule: Q01DX011 (ip), vehicle: saline, higher = larger tumour
  T/C: 61 % of control
endpoint: mean tumor weight, dose: 100.0 mg/kg/injection, schedule: Q01DX011 (ip), vehicle: saline, higher = larger tumour
  T/C: 100 % of control

## O=P(N1CC1)(N1CC1)N1CC1
endpoint: mean tumor weight, dose: 0.2 mg/kg/injection, schedule: Q01DX011 (ip), vehicle: other, higher = larger tumour
  T/C: 90 % of control
endpoint: mean tumor weight, dose: 0.4 mg/kg/injection, schedule: Q01DX011 (ip), vehicle: other, higher = larger tumour
  T/C: 62 % of control
endpoint: mean tumor weight, dose: 0.8 mg/kg/injection, schedule: Q01DX011 (ip), vehicle: other, higher = larger tumour
  T/C: 58 % of control and 69 % of control
endpoint: mean tumor weight, dose: 1.3 mg/kg/injection, schedule: Q01DX011 (ip), vehicle: other, higher = larger tumour
  T/C: 37 % of control and 45 % of control and 62 % of control
endpoint: mean tumor weight, dose: 2.0 mg/kg/injection, schedule: Q01DX011 (ip), vehicle: other, higher = larger tumour
  T/C: 70 % of control
